Series [1] deals with CFTR-mediated chloride transport (Homo sapiens, UniProt P13569). It counts as cell-based. The settings on record: enteroid cells incubated with test compound 18-24 hours, acute 10 μM forskolin and 300 nM Compound III; for Max. Activity: % of chloride transport with 3 μM Compound A, 3 μM Compound II and 300 nM acute Compound III triple combination control. In a few lines:
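Human intestinal enteroid cells incubated with compound 18–24 h at 37° C., then membrane potential dye (FLIPR) read 15 min after chloride-free stimulation with 10 μM forskolin, 100 μM IBMX and 300 nM Compound III. AUC expressed as % of triple-combination control (3 μM Compound A, 3 μM Compound II, 300 nM Compound III).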

For series [2] the following is noted: snar bond.

Like-named read-outs stand apart in the source and are kept apart here.

Sequence of CFTR-mediated chloride transport (P13569 whole entry, looked up): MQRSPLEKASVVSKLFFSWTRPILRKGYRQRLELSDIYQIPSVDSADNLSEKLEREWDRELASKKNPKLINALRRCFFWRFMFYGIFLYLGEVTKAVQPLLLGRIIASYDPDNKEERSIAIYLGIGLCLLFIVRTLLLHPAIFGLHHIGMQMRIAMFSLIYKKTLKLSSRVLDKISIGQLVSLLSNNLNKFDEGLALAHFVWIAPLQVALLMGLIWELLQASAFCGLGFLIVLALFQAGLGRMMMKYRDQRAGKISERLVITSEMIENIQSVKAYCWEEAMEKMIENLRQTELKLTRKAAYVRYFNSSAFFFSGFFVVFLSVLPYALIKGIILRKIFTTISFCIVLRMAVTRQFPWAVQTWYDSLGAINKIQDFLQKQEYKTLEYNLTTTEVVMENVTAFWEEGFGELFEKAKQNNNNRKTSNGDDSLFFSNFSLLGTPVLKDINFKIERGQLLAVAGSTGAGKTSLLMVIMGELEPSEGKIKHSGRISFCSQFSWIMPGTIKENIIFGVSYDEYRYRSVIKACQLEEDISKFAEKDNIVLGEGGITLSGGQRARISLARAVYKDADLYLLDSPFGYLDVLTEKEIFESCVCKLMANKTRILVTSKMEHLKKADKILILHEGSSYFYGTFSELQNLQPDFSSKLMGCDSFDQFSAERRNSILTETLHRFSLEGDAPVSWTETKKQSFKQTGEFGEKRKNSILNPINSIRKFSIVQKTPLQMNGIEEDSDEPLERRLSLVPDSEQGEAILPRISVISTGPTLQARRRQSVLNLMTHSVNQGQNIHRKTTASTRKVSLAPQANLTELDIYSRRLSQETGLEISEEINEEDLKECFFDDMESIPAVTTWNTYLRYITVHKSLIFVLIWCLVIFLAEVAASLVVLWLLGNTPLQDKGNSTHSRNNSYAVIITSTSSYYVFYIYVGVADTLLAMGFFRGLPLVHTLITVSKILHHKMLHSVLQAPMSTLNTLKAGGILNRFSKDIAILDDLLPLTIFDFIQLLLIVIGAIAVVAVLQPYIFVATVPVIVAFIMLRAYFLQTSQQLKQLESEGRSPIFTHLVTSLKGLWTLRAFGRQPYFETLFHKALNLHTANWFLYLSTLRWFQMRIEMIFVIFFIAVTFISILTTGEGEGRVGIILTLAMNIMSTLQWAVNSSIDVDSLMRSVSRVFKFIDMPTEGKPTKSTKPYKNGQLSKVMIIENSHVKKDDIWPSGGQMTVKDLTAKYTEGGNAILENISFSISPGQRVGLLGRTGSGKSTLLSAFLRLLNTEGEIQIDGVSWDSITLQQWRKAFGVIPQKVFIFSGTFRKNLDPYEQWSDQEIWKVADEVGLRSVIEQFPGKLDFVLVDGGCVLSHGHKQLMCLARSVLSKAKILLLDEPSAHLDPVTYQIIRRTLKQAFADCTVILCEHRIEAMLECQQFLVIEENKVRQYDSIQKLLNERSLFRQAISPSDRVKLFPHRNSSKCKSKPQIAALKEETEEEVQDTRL

`CC1(C)C[C@@H]2CCCNc3cccc(n3)S(=O)(=O)NC(=O)c3ccc(-n4ccc(OCC(O)CC5(C(F)(F)F)CC5)n4)nc3N1C2` (stereo partly drawn) [Compound 259, (14S)-8-(3-{2-hydroxy-3-[1-(trifluoromethyl)cyclopropyl]propoxy}-1H-pyrazol-1-yl)-12,12-dimethyl-2λ^6-thia-3,9,11,18,23-pentaazatetracyclo[17.3.1.111,14.05,10]tetracosa-1(22),5(10),6,8,19(23),20-hexaene-2,2,4-trione]: in series [1], the EC50 – broadly, the concentration that produces a half-maximal response – is < 1 µM and the “Max. Activity” value is reported as “+++ (+++ is >60%)”. Also, the ring closure, isolated yield in series [2] (from CC(C)(C)OC(=O)N1C[C@@H](CCCNc2cccc(S(=O)(=O)NC(=O)c3ccc(-n4ccc(OCC(O)CC5(C(F)(F)F)CC5)n4)nc3Cl)n2)CC1(C)C, 15-membered ring, HCl/dioxane/DCM, then K2CO3/3A MS, DMSO, 28.6 mM, 155.0 °C, 2 steps) amounted to 42%.

With `CC1(C)CC2CCCCc3ccc(cc3)S(=O)(=O)NC(=O)c3ccc(-n4ccc(OCCC5(C(F)(F)F)CC5)n4)nc3N1C2` (stereo not drawn) [Compound 52, 12,12-dimethyl-8-(3-{2-[1-(trifluoromethyl)cyclopropyl]ethoxy}-1H-pyrazol-1-yl)-2λ^6-thia-3,9,11-triazatetracyclo[17.2.2.111,14.05,10]tetracosa-1(21),5,7,9,19,22-hexaene-2,2,4-trione], in series [1], the concentration for a half-maximal effect (EC50) is < 1 µM and the “Max. Activity” value is reported as “++ (++ is 30-60%)”. Also, in series [2] (from CC1(C)CC(CCCCc2ccc(S(=O)(=O)NC(=O)c3ccc(-n4ccc(OCCC5(C(F)(F)F)CC5)n4)nc3Cl)cc2)CN1, 16-membered ring, K2CO3/CsF/3A MS, DMSO, 37.4 mM, 155.0 °C), the ring closure, isolated yield is 26%.

Consider `CC1(C)C[C@H]2CCCNc3cccc(n3)S(=O)(=O)NC(=O)c3ccc(-n4ccc(OCCC5C6(CC6)C56CC6)n4)nc3N1C2` [Compound 194, (14R)-8-[3-(2-{Dispiro[2.0.2.1]heptan-7-yl}ethoxy)-1H-pyrazol-1-yl]-12,12-dimethyl-2λ^6-thia-3,9,11,18,23-pentaazatetracyclo[17.3.1.111,14.05,10]tetracosa-1(22),5,7,9,19(23),20-hexaene-2,2,4-trione], for which, in series [1], the EC50 was < 1 µM and the “Max. Activity” value is listed as “++ (++ is 30-60%)”. In series [2] (from CC1(C)C[C@@H](CCCNc2cccc(S(=O)(=O)NC(=O)c3ccc(-n4ccc(OCCC5C6(CC6)C56CC6)n4)nc3Cl)n2)CN1, 15-membered ring, K2CO3, NMP, 72.4 mM, 135.0 °C, 22.0 h), this compound showed a ring closure, isolated yield of 57%.

Consider `CC1(C)CC2CCCCn3ccc(n3)S(=O)(=O)NC(=O)c3ccc(-n4ccc(OCCC5(C(F)(F)F)CC5)n4)nc3N1C2` (stereo not drawn) [Compound 39, 21,21-dimethyl-4-(3-{2-[1-(trifluoromethyl)cyclopropyl]ethoxy}-1H-pyrazol-1-yl)-10λ^6-thia-1,3,9,14,23-pentaazatetracyclo[17.2.1.111,14.02,7]tricosa-2,4,6,11(23),12-pentaene-8,10,10-trione], for which, in series [1], the EC50 was in the range of 1 to 3 µM and the “Max. Activity” value is reported as “+++ (+++ is >60%)”. Also, the ring closure, isolated yield in series [2] (from CC(C)(C)OC(=O)N1CC(CCCCn2ccc(S(=O)(=O)NC(=O)c3ccc(-n4ccc(OCCC5(C(F)(F)F)CC5)n4)nc3Cl)n2)CC1(C)C, 15-membered ring, HCl (Boc off), K2CO3/CsF/3A MS, DMSO, 63.7 mM, 150.0 °C, 2 steps) was found to be 37%.

As to `CC1(C)CC2CCNc3cccc(n3)S(=O)(=O)NC(=O)c3ccc(-n4ccc(OCCC5(C(F)(F)F)CC5)n4)nc3N1C2` (stereo not drawn) [Compound 20, 7,7-dimethyl-11-(3-{2-[1-(trifluoromethyl)cyclopropyl]ethoxy}-1H-pyrazol-1-yl)-17λ^6-thia-2,8,10,16,22-pentaazatetracyclo[16.3.1.15,8.09,14]tricosa-1(21),9,11,13,18(22),19-hexaene-15,17,17-trione], in series [1], the EC50 is < 1 µM and the “Max. Activity” value is “+++ (+++ is >60%)”. Further, the ring closure, isolated yield in series [2] (from CC1(C)CC(CCNc2cccc(S(=O)(=O)NC(=O)c3ccc(-n4ccc(OCCC5(C(F)(F)F)CC5)n4)nc3Cl)n2)CN1, 14-membered ring, K2CO3/CsF/3A MS, DMSO, 54.4 mM, 155.0 °C) was 43%.

Take `CC1(C)CCC2CCCNc3cccc(n3)S(=O)(=O)NC(=O)c3ccc(-n4ccc(OCCC5(C(F)(F)F)CC5)n4)nc3N21` (stereo not drawn) [Compound 16, 12,12-dimethyl-8-(3-{2-[1-(trifluoromethyl)cyclopropyl]ethoxy}-1H-pyrazol-1-yl)-2λ^6-thia-3,9,11,19,24-pentaazatetracyclo[18.3.1.05,10.011,15]tetracosa-1(23),5,7,9,20(24),21-hexaene-2,2,4-trione]: in series [1], the EC50 was < 1 µM and the “Max. Activity” value is “++ (++ is 30-60%)”. Besides, the ring closure, isolated yield in series [2] (from CC1(C)CCC(CCCNc2cccc(S(=O)(=O)NC(=O)c3ccc(-n4ccc(OCCC5(C(F)(F)F)CC5)n4)nc3Cl)n2)N1, 14-membered ring, K2CO3/CsF, DMSO, 84.1 mM, 150.0 °C) amounted to 58%.

Consider `CC1(C)C[C@@H]2CCCNc3cccc(n3)S(=O)(=O)NC(=O)c3ccc(-n4ccc(OCCC5C(C)(C)C5(C)C)n4)nc3N1C2` [Compound 185, (14S)-12,12-Dimethyl-8-{3-[2-(2,2,3,3-tetramethylcyclopropyl)ethoxy]-1H-pyrazol-1-yl}-2λ^6-thia-3,9,11,18,23-pentaazatetracyclo[17.3.1.111,14.05,10]tetracosa-1(23),5(10),6,8,19,21-hexaene-2,2,4-trione], for which, in series [1], the EC50 was < 1 µM and the “Max. Activity” value was “+++ (+++ is >60%)”. In addition, the ring closure, isolated yield in series [2] (from CC(C)(C)OC(=O)N1C[C@@H](CCCNc2cccc(S(=O)(=O)NC(=O)c3ccc(-n4ccc(OCCC5C(C)(C)C5(C)C)n4)nc3Cl)n2)CC1(C)C, 15-membered ring, K2CO3/3A MS, DMSO, 37.9 mM, 160.0 °C, 2 steps) was 19%.

As for `CN1CCCC2CN(c3nc(-n4ccc(OCCC5(C(F)(F)F)CC5)n4)ccc3C(=O)NS(=O)(=O)c3ccc1nc3)C(C)(C)C2` (stereo not drawn) [Compound 140, 12,12,18-Trimethyl-8-(3-{2-[1-(trifluoromethyl)cyclopropyl]ethoxy}-1H-pyrazol-1-yl)-2λ^6-thia-3,9,11,18,20-pentaazatetracyclo[17.2.2.111,14.05,10]tetracosa-1(22),5,7,9,19(23),20-hexaene-2,2,4-trione], in series [1], the 50% effective concentration (EC50) is < 1 µM and the “Max. Activity” value is reported as “++ (++ is 30-60%)”. Also, the ring closure, isolated yield in series [2] (from CN(CCCC1CNC(C)(C)C1)c1ccc(S(=O)(=O)NC(=O)c2ccc(-n3ccc(OCCC4(C(F)(F)F)CC4)n3)nc2Cl)cn1, 16-membered ring, K2CO3/CsF, DMSO, 10.2 mM, 200.0 °C, 1.5 h) was 12%.

For the compound `[2H]C([2H])([2H])C1(C([2H])([2H])[2H])C[C@@H]2CCCNc3cccc(n3)S(=O)(=O)NC(=O)c3ccc(-n4ccc(OCCCC5(C(F)(F)F)CC5)n4)nc3N1C2` [Compound 292, (14S)-12,12-di(trideuterio)methyl-8-(3-{3-[1-(trifluoromethyl)cyclopropyl]propoxy}-1H-pyrazol-1-yl)-2λ^6-thia-3,9,11,18,23-pentaazatetracyclo[17.3.1.111,14.05,10]tetracosa-1(22),5,7,9,19(23),20-hexaene-2,2,4-trione], in series [1], the EC50 was < 1 µM and the “Max. Activity” value is given as “+++ (+++ is >60%)”. In addition, the ring closure, isolated yield in series [2] (from [2H]C([2H])([2H])C1(C([2H])([2H])[2H])C[C@H](CCCNc2cccc(S(=O)(=O)NC(=O)c3ccc(-n4ccc(OCCCC5(C(F)(F)F)CC5)n4)nc3Cl)n2)CN1, 15-membered ring, K2CO3, NMP, 41.5 mM, 135.0 °C, 22.0 h) turned out to be 27%.

As to `CN1CCCC2CN(c3nc(-n4ccc(OCCC5(C(F)(F)F)CC5)n4)ccc3C(=O)NS(=O)(=O)c3cccc1n3)C(C)(C)C2` (stereo not drawn) [Compound 133, 12,12,18-trimethyl-8-(3-{2-[1-(trifluoromethyl)cyclopropyl]ethoxy}-1H-pyrazol-1-yl)-2λ^6-thia-3,9,11,18,23-pentaazatetracyclo[17.3.1.111,14.05,10]tetracosa-1(23),5(10),6,8,19,21-hexaene-2,2,4-trione], in series [1], the EC50 is < 1 µM and the “Max. Activity” value was “+++ (+++ is >60%)”. This compound registered a ring closure, isolated yield in series [2] (from CN(CCCC1CNC(C)(C)C1)c1cccc(S(=O)(=O)NC(=O)c2ccc(-n3ccc(OCCC4(C(F)(F)F)CC4)n3)nc2Cl)n1, 15-membered ring, K2CO3/CsF/3A MS, DMSO, 30.3 mM, 165.0 °C, 4.0 h) of 42%.

With `CC1(C)CC2CCCCn3cc(cn3)S(=O)(=O)NC(=O)c3ccc(-n4ccc(OCCC5(C(F)(F)F)CC5)n4)nc3N1C2` (stereo not drawn) [Compound 122, 21,21-Dimethyl-4-(3-{2-[1-(trifluoromethyl)cyclopropyl]ethoxy}-1H-pyrazol-1-yl)-10λ^6-thia-1,3,9,13,14-pentaazatetracyclo[17.2.1.111,14.02,7]tricosa-2,4,6,11(23),12-pentaene-8,10,10-trione], in series [1], the EC50 is < 1 µM and the “Max. Activity” value is reported as “++ (++ is 30-60%)”. For the same compound, the ring closure, isolated yield in series [2] (from CC(C)(C)OC(=O)N1CC(CCCCn2cc(S(=O)(=O)NC(=O)c3ccc(-n4ccc(OCCC5(C(F)(F)F)CC5)n4)nc3Cl)cn2)CC1(C)C, 15-membered ring, K2CO3/CsF/3A MS, DMSO, 41.5 mM, 155.0 °C, 2 steps) was 50%.

In the case of `CC1(C)C2CCNc3cccc(n3)S(=O)(=O)NC(=O)c3ccc(-n4ccc(OCCC5(C(F)(F)F)CC5)n4)nc3N1CC2` (stereo not drawn) [Compound 236, 23,23-Dimethyl-11-(3-{2-[1-(trifluoromethyl)cyclopropyl]ethoxy}-1H-pyrazol-1-yl)-17λ^6-thia-2,8,10,16,22-pentaazatetracyclo[16.3.1.15,8.09,14]tricosa-1(22),9,11,13,18,20-hexaene-15,17,17-trione], in series [1], the EC50 is > 3 µM and the “Max. Activity” value is on record as “+ (+ is <30%)”. In addition, the ring closure, isolated yield in series [2] (from CC1(C)NCCC1CCNc1cccc(S(=O)(=O)NC(=O)c2ccc(-n3ccc(OCCC4(C(F)(F)F)CC4)n3)nc2Cl)n1, 14-membered ring, K2CO3/3A MS, DMSO, 25.1 mM, 180.0 °C, 18.0 h) was 2%.
